Results taken from patent US9598457B2, “Substituted nucleosides, nucleotides and analogs thereof” (Alios BioPharma, Inc., priority 2012, dated 2017).
Read-outs that look alike come from different tables or passages of the source.

Columns and labels:
[1] = tested on: Huh-7 cells containing the self-replicating, subgenomic HCV replicon; assay: HCV replicon assay (luciferase reporter); assay type: cell-based; conditions: Hepatitis C virus
[2] = tested on: mitochondrial protein synthesis (COX I relative to SDH A) in HepG2 cells
NS5B570-Con1 (Delta-21) = NS5B570-Con1 (Delta-21) (Hepatitis C virus genotype 1b, UniProt Q9WMX2); assay: biochemical; set-up: species or system HCV Con-1 strain
[3] = target: human mitochondrial RNA polymerase (Homo sapiens, UniProt O00411); assay: DdRp assay: incorporation of nucleotides by human mitochondrial RNA polymerase (HMRP); conditions: 100 μM of each NTP, single turnover, 30° C., 1 minute; template for GTP analogs
Sequence of human mitochondrial RNA polymerase (O00411 42-1230): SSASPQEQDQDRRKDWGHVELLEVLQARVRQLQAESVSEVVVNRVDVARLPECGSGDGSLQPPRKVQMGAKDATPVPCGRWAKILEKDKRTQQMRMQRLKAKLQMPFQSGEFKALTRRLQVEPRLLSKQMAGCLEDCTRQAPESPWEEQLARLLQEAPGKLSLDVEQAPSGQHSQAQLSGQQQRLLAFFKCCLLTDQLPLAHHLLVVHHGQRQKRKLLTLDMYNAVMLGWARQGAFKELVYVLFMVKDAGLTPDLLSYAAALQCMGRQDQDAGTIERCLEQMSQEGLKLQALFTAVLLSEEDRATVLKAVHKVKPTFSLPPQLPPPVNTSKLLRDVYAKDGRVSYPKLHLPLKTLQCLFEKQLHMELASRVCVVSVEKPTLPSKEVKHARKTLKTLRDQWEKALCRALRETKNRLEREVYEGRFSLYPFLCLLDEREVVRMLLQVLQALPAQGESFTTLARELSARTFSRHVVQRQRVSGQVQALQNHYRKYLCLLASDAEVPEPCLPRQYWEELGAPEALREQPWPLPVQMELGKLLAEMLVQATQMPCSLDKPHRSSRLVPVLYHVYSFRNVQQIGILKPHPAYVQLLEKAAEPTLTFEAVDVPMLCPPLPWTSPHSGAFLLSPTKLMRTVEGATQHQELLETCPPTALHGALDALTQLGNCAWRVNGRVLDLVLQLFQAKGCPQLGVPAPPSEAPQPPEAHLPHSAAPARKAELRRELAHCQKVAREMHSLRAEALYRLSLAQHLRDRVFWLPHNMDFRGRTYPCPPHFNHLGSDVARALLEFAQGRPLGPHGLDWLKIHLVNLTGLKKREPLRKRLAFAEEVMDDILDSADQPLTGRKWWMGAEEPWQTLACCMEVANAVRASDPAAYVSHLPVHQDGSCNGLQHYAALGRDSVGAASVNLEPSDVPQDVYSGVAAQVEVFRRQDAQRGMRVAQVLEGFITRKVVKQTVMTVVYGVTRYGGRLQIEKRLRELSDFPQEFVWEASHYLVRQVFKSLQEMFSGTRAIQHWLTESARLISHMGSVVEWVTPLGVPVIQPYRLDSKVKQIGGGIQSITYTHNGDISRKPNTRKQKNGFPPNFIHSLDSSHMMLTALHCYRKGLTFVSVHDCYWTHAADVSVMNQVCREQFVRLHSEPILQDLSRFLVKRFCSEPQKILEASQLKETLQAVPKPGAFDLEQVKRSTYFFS

**Q.** With `C[C@H](NP(=O)(OC[C@H]1O[C@@H](n2cnc3c(=O)[nH]c(N)nc32)[C@](C)(O)[C@@H]1F)Oc1ccccc1Cl)C(=O)OCC(C)(C)C` (stereo partly drawn) [Compound 7, (2S)-neopentyl 2-(((((2R,3R,4S,5R)-5-(2-amino-6-oxo-1H-purin-9(6H)-yl)-3-fluoro-4-hydroxy-4-methyltetrahydrofuran-2-yl)methoxy)(2-chlorophenoxy)phosphoryl)amino)propanoate] as the molecule, how does the EC50 ([1]; Huh-7, 72 h) read?
**A.** Its EC50 is 10 to 100 µM.

**Q.** `C[C@@]1(O)[C@H](F)[C@@H](CO)O[C@H]1n1cnc2c(=O)[nH]c(N)nc21` [Compound 6, 2-amino-9-((2R,3S,4R,5R)-4-fluoro-3-hydroxy-5-(hydroxymethyl)-3-methyltetrahydrofuran-2-yl)-1H-purin-6(9H)-one] was tested. Which EC50 ([1]; Huh-7, HCV replicon cells, 72 h, Bright-Glo luciferase, read-out: EC50) did it give?
**A.** Its EC50 is 10 to 100 µM.

**Q.** How did the “inhibition of mitochondrial protein synthesis (FIGS. 11A-B)” value [2] turn out when `Cc1cn([C@H]2C=C[C@@H](CO)O2)c(=O)[nH]c1=O` [d4T] was run?
**A.** Its value is “found not to inhibit mitochondrial protein synthesis”.

**Q.** For `Nc1ccn([C@H]2CC[C@@H](CO)O2)c(=O)n1` [ddC], which “inhibition of mitochondrial protein synthesis (FIGS. 11A-B)” value [2] is on record?
**A.** Its value is “strongly inhibit mitochondrial protein synthesis”.

**Q.** For `CCOc1nc(N)nc2c1ncn2[C@@H]1O[C@H](COP(=S)(N[C@@H](C)C(=O)OC(C)C)Oc2ccccc2)[C@@H](F)[C@@]1(C)O` (stereo partly shown) [Compound 11], which EC50 ([1]; Huh-7, 72 h) is on record?
**A.** Its EC50 is 10 to 100 µM.

**Q.** For `CCOc1nc(N)nc2c1ncn2[C@@H]1O[C@H](COP(=S)(N[C@@H](C)C(=O)OCC(C)(C)C)Oc2ccccc2)[C@@H](F)[C@@]1(C)O` (stereo partly shown) [Compound 13], which EC50 ([1]; Huh-7, 72 h) is on record?
**A.** The EC50 was 1 to 10 µM.

**Q.** How did the EC50 ([1]; Huh-7, 72 h) turn out when `CCOc1nc(N)nc2c1ncn2[C@@H]1O[C@H](COP(=O)(N[C@@H](C)C(=O)OC(C)C)Oc2ccccc2)[C@@H](F)[C@@]1(C)O` (stereo partly shown) [Compound 10] was run?
**A.** The EC50 was under 1 µM.

**Q.** With `CCOc1nc(N)nc2c1ncn2[C@@H]1O[C@H](COP(=S)(N[C@@H](C)C(=O)OC2CCCCC2)Oc2ccccc2)[C@@H](F)[C@@]1(C)O` (stereo partly shown) [Compound 12] as the molecule, how does the EC50 ([1]; Huh-7, 72 h) read?
**A.** The EC50 was 1 to 10 µM.

**Q.** With `C[C@H](NP(=O)(OC[C@H]1O[C@@H](n2cnc3c(=O)[nH]c(N)nc32)[C@](C)(O)[C@@H]1F)Oc1ccccc1)C(=O)OC1CCCCC1` (stereo partly drawn) [Compound 9, (2S)-cyclohexyl 2-(((((2R,3R,4S,5R)-5-(2-amino-6-oxo-1H-purin-9(6H)-yl)-3-fluoro-4-hydroxy-4-methyltetrahydrofuran-2-yl)methoxy)(phenoxy)phosphoryl)amino)propanoate] as the molecule, how does the EC50 ([1]; Huh-7, 72 h) read?
**A.** Its EC50 is 1 to 10 µM.

**Q.** Which IC50 (NS5B570-Con1 (Delta-21)) does the source give for `C[C@@]1(O)[C@H](F)[C@@H](COP(=O)(O)OP(=O)(O)OP(=O)(O)O)O[C@H]1n1cnc2c(=O)[nH]c(N)nc21` [Compound 15] here?
**A.** Its IC50 is under 1 µM.

**Q.** With `CCOc1nc(N)nc2c1ncn2[C@@H]1O[C@H](COP(=O)(N[C@@H](C)C(=O)OC2CCCCC2)Oc2ccccc2)[C@@H](F)[C@@]1(C)O` (stereo partly drawn) [Compound 5, (2S)-cyclohexyl 2-(((((2R,3R,4S,5R)-5-(2-amino-6-ethoxy-1H-purin-9(6H)-yl)-3-fluoro-4-hydroxy-4-methyltetrahydrofuran-2-yl)methoxy)(phenoxy)phosphoryl)amino)propanoate] as the molecule, how does the EC50 ([1]; Huh-7, 72 h) read?
**A.** The EC50 was under 1 µM.

**Q.** With `CCOc1nc(N)nc2c1ncn2[C@@H]1O[C@H](COP(=O)(N[C@@H](C)C(=O)OCC(C)(C)C)Oc2ccccc2Cl)[C@@H](F)[C@@]1(C)O` (stereo partly drawn) [Compound 2, (2S)-neopentyl 2-(((((2R,3R,4S,5R)-5-(2-amino-6-ethoxy-1H-purin-9(6H)-yl)-3-fluoro-4-hydroxy-4-methyltetrahydrofuran-2-yl)methoxy)(2-chlorophenoxy)phosphoryl)amino)propanoate] as the molecule, how does the EC50 ([1]; Huh-7, 72 h) read?
**A.** Its EC50 is under 1 µM.

**Q.** `CCOc1nc(N)nc2c1ncn2[C@@H]1O[C@H](COP(=O)(N[C@@H](C)C(=O)OC2CCCCC2)Oc2ccc(F)c(Cl)c2)[C@@H](F)[C@@]1(C)O` (stereo partly drawn) [Compound 3, (2S)-cyclohexyl 2-(((((2R,3R,4S,5R)-5-(2-amino-6-ethoxy-1H-purin-9(6H)-yl)-3-fluoro-4-hydroxy-4-methyltetrahydrofuran-2-yl)methoxy)(3-chloro-4-fluorophenoxy)phosphoryl)amino)propanoate] was tested. Which EC50 ([1]; Huh-7, 72 h) did it give?
**A.** The EC50 was under 1 µM.

**Q.** For `Nc1ncnc2c1ncn2[C@@H]1O[C@H](COP(=O)(O)OP(=O)(O)OP(=O)(O)O)[C@@H](O)[C@H]1O` [ATP], which “incorporation by human mitochondrial RNA polymerase (product band, FIG. 10)” value [3] is on record?
**A.** Its value is “poor substrate for incorporation”.

**Q.** Which EC50 ([1]; Huh-7, 72 h) does the source give for `C[C@H](NP(=O)(OC[C@H]1O[C@@H](n2cnc3c(=O)[nH]c(N)nc32)[C@](C)(O)[C@@H]1F)Oc1ccc(F)c(Cl)c1)C(=O)OC1CCCCC1` (stereo partly drawn) [Compound 8, (2S)-cyclohexyl 2-(((((2R,3R,4S,5R)-5-(2-amino-6-oxo-1H-purin-9(6H)-yl)-3-fluoro-4-hydroxy-4-methyltetrahydrofuran-2-yl)methoxy)(3-chloro-4-fluorophenoxy)phosphoryl)amino)propanoate] here?
**A.** Its EC50 is 10 to 100 µM.

**Q.** `CCOc1nc(N)nc2c1ncn2[C@@H]1O[C@H](COP(=O)(N[C@@H](C)C(=O)OCC(C)(C)C)Oc2ccccc2)[C@@H](F)[C@@]1(C)O` (stereo partly drawn) [Compound 4, (2S)-neopentyl 2-(((((2R,3R,4S,5R)-5-(2-amino-6-ethoxy-1H-purin-9(6H)-yl)-3-fluoro-4-hydroxy-4-methyltetrahydrofuran-2-yl)methoxy)(phenoxy)phosphoryl)amino)propanoate] was tested. Which EC50 ([1]; Huh-7, 72 h) did it give?
**A.** The EC50 was under 1 µM.
